The target of assay [1] is Adenosine deaminase 2 (CECR1) (Homo sapiens) (UniProt Q9NZK5). The assay is described as follows: Tested for binding constant against adenosine deaminase (ADA2) in human plasma.
For assay [2] the target is unchanged. The assay is described as follows: Tested for inhibition against human plasma adenosine deaminase (ADA2).

Adenosine deaminase 2 (CECR1) (Homo sapiens), sequence (Q9NZK5 whole entry, looked up): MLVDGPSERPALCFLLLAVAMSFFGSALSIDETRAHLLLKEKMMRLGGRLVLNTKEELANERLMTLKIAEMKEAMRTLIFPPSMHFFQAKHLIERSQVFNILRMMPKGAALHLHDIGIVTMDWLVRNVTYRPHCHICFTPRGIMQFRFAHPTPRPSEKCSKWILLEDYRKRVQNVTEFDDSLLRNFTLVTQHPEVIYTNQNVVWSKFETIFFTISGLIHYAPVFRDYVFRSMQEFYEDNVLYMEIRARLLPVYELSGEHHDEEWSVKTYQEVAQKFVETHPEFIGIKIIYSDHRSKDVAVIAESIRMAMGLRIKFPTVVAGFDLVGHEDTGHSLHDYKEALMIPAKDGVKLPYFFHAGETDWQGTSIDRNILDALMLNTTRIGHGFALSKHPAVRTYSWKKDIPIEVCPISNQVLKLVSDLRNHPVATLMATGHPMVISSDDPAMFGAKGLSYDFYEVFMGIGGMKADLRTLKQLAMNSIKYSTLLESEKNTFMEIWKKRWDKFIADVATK

On to `Nc1ncnc2c1ncn2[C@@H]1O[C@H](CO)[C@@H](O)[C@H]1O` [[U-14C]adenosine], for which the affinity in assay [1], expressed as Ki, was 2180 µM.

Turning to `Nc1nncc2c1nnn2C1O[C@H](CO)[C@@H](O)[C@H]1O` (some centres not stated), affinity in assay [2] was put at a Ki of 1410 µM.

For the origin of these results see BindingDB's records for doi:10.1021/jm00077a017 (University of Rhode Island, 1994).
